“Also recorded” adds a separate entry of the source.
Experiments:
[1] = system: PSMA+PC3-PIP and PSMA-PC3-flu flank xenografts; assay: Biodistribution of [125I/211At]2 and 3 with and without co-injection of DCIBzL (Example 6); assay type: in vivo, athymic mice
Text: Final compounds were purified by HPLC.

PSMA− PC3-flu = assay: Efficacy in subcutaneous (SC) PSMA− PC3-flu model; assay type: in vivo, NOD/SCID/IL-2rγ−/− (NSG) mice; conditions: single intravenous injection of different doses; FIG. 3A
Experimental: (§1) Two murine models of human PC were generated, a subcutaneous (SC) model of PSMA+PC3-PIP and PSMA-PC3-flu cells and a metastatic model of PSMA+ PC3ML/PSMA/fLuc in NOD/SCID/IL-2rγ−/− (NSG) mice. Single intravenous injection of different doses (FIG. 3) was given to each animal and the tumor progression was monitored by measuring the SC tumor volume or by performing bioluminescence imaging for the metastatic model.

[2] = system: PSMA + PC3-PIP and PSMA-PC3-flu flank xenografts; assay: Biodistribution of At-211 labeled PSMA inhibitors with and without cold blocking agent (Tables 6-8); assay type: in vivo, athymic mice
Experimental: Organs were harvested 1, 4, and 24 h post-injection (n=5 per time point).

CD-1 mice = assay: Long-term toxicity in healthy immunocompetent mice; assay type: in vivo; conditions: 1.48 MBq, 0.74 MBq, 0.244 MBq; up to 4 months after treatment
PSMA+ PC3-PIP = assay: Efficacy in subcutaneous (SC) PSMA+ PC3-PIP model; assay type: in vivo, NOD/SCID/IL-2rγ−/− (NSG) mice; conditions: single intravenous injection of different doses; FIG. 3A
Experimental: as §1

[3] = system: PSMA + PC3-PIP and PSMA-PC3-flu flank xenografts; conditions: previously shown, Mease et al., 2018; cited from earlier work
[4] = 21-24 Hour (footnote b), + 0.25 nmole YC-I-27
[5] = 21-24 Hour (footnote b), no blocker

## O=C([O-])CN1CCN(CC(=O)[O-])CCN(CC(=O)NCCCCC(=O)N(CCCC[C@H](NC(=O)N[C@@H](CCC(=O)O)C(=O)O)C(=O)O)Cc2ccc([211At])cc2)CCN(CC(=O)[O-])CC1.[Lu+3] [[^211At]VK-02-90-Lu]
[1]; @ 1 h
  Stomach uptake: 0.4±0.2 % ID/g
[1]; @1 h, co-injection of DCIBzL
  retention, K: 2.2±0.6 % ID/g
  retention, LG: below detection
  retention, SG: 0.4±0.15 % ID/g
[1]; @ 4 h
  Stomach uptake: 0.4±0.05 % ID/g
[1]; @ 24 h
  Stomach uptake: 0.4±0.7 % ID/g
[1]; combined with DCIBzL
  ^211At uptake in PSMA+ PC3-PIP xenografts: 25.4±4.4 % ID/g
[1]; mouse, in vivo, listed as [^211At]3
  deastatination in vivo: negligible deastatination; also recorded: no evidence of deastatination in vivo
PSMA− PC3-flu
  effect on PSMA− PC3-flu SC model: no effect
[2]; 1 Hour, 0.5 nmole YC-I-27
  Biodistribution, Blood: 0.5 ± 0.1 % injected dose/g
  Biodistribution, Flu tumor: 0.4 ± 0.1 % injected dose/g
  Biodistribution, PIP tumor: 25.4 ± 4.4 % injected dose/g
  Biodistribution, Spleen: 0.3 ± 0.4 % injected dose/g
  Biodistribution, Stomach: 0.4 ± 0.2 % injected dose/g
  Biodistribution, kidney: 2.2 ± 0.6 % injected dose/g
  Biodistribution, lacrimal gland: 0 % injected dose/g
  Biodistribution, salivary gland: 0.4 ± 0.15 % injected dose/g
[2]; 1 Hour, + 0.25 nmole YC-I-27
  Biodistribution, Blood: 0.6 ± 0.04 % injected dose/g
  Biodistribution, Flu tumor: 0.4 ± 0.1 % injected dose/g
  Biodistribution, PIP tumor: 34.2 ± 7.8 % injected dose/g
  Biodistribution, Spleen: 0.5 ± 0.4 % injected dose/g
  Biodistribution, Stomach: 0.4 ± 0.2 % injected dose/g
  Biodistribution, kidney: 5.0 ± 1.6 % injected dose/g
  Biodistribution, lacrimal gland: 0.1 ± 0.4 % injected dose/g
  Biodistribution, salivary gland: 0.4 ± 0.15 % injected dose/g
[2]; 1 Hour, no blocker
  Biodistribution, Blood: 0.8 ± 0.2 % injected dose/g
  Biodistribution, Flu tumor: 0.4 ± 0.2 % injected dose/g
  Biodistribution, PIP tumor: 30.6 ± 4.8 % injected dose/g
  Biodistribution, Spleen: 2.5 ± 0.9 % injected dose/g
  Biodistribution, Stomach: 0.4 ± 0.1 % injected dose/g
  Biodistribution, kidney: 90 ± 43 % injected dose/g
  Biodistribution, lacrimal gland: 0.8 ± 0.9 % injected dose/g
  Biodistribution, salivary gland: 0.5 ± 0.2 % injected dose/g
[2]; 4 H, 0.5 nmole YC-I-27
  Biodistribution, Blood: 0.2 ± 0.1 % injected dose/g
  Biodistribution, Flu tumor: 0.1 ± 0.04 % injected dose/g
  Biodistribution, PIP tumor: 18.7 ± 5.4 % injected dose/g
  Biodistribution, Spleen: 0.8 ± 0.5 % injected dose/g
  Biodistribution, Stomach: 0.4 ± 0.05 % injected dose/g
  Biodistribution, kidney: 0.7 ± 0.1 % injected dose/g
  Biodistribution, lacrimal gland: 0 % injected dose/g
  Biodistribution, salivary gland: 0.3 ± 0.2 % injected dose/g
[2]; 4 H, + 0.25 nmole YC-I-27
  Biodistribution, Blood: 0.2 ± 0.1 % injected dose/g
  Biodistribution, Flu tumor: 0.1 ± 0.2 % injected dose/g
  Biodistribution, PIP tumor: 27.8 ± 8.7 % injected dose/g
  Biodistribution, Spleen: 0.1 ± 0.5 % injected dose/g
  Biodistribution, Stomach: 0.5 ± 0.3 % injected dose/g
  Biodistribution, kidney: 1.4 ± 0.3 % injected dose/g
  Biodistribution, lacrimal gland: 0.4 ± 0.4 % injected dose/g
  Biodistribution, salivary gland: 0.2 ± 0.1 % injected dose/g
[2]; 4 H, no blocker
  Biodistribution, Blood: 0.1 ± 0.03 % injected dose/g
  Biodistribution, Flu tumor: 0.1 ± 0.1 % injected dose/g
  Biodistribution, Spleen: 0 % injected dose/g
  Biodistribution, Stomach: 0.3 ± 0.2 % injected dose/g
  Biodistribution, kidney: 2.1 ± 0.6 % injected dose/g
  Biodistribution, lacrimal gland: 0.3 ± 1.1 % injected dose/g
  Biodistribution, salivary gland: 0.2 ± 0.1 % injected dose/g
[2]; [4]
  Biodistribution, Blood: 0.3 ± 1.0 % injected dose/g
  Biodistribution, Flu tumor: 0.04 ± 0.2 % injected dose/g
  Biodistribution, PIP tumor: 15.3 ± 8.0 % injected dose/g
  Biodistribution, Spleen: 0 % injected dose/g
  Biodistribution, Stomach: 0.3 ± 0.4 % injected dose/g
  Biodistribution, kidney: 0.3 ± 0.4 % injected dose/g
  Biodistribution, lacrimal gland: 0 % injected dose/g
  Biodistribution, salivary gland: 0 % injected dose/g
[2]; [5]
  Biodistribution, Blood: 0 % injected dose/g
  Biodistribution, Flu tumor: 0 % injected dose/g
  Biodistribution, PIP tumor: 9.5 ± 1.0 % injected dose/g
  Biodistribution, Spleen: 0 % injected dose/g
  Biodistribution, Stomach: 0 % injected dose/g
  Biodistribution, kidney: 0.02 ± 0.2 % injected dose/g
  Biodistribution, lacrimal gland: 0 % injected dose/g
  Biodistribution, salivary gland: 0 % injected dose/g
[2]; 21-24 Hour, 0.5 nmole YC-I-27
  Biodistribution, Blood: 0.03 ± 0.3 % injected dose/g
  Biodistribution, Flu tumor: 0.2 ± 0.3 % injected dose/g
  Biodistribution, PIP tumor: 17.5 ± 7.9 % injected dose/g
  Biodistribution, Spleen: 2.5 ± 4.3 % injected dose/g
  Biodistribution, Stomach: 0.4 ± 0.7 % injected dose/g
  Biodistribution, kidney: 0.4 ± 0.5 % injected dose/g
  Biodistribution, lacrimal gland: 0 % injected dose/g
  Biodistribution, salivary gland: 0 % injected dose/g
[2]; compared to other At-211 labeled PSMA inhibitors
  kidney and stomach uptake: lower kidney and stomach uptake
CD-1 mice
  treatment-related toxicity (overall health status and urinalysis): No CD-1 animals showed treatment-related toxicity
PSMA+ PC3-PIP
  response in PSMA+ PC3-PIP SC model (SC tumor volume): dose-dependent response; also recorded: dose-dependent efficacy
[3]
  renal clearance: rapid renal clearance
  retention in PSMA+tumors: persistent retention

Reference: patent publication US11813340B2, “PSMA targeted radiohalogenated urea-polyaminocarboxylates for cancer radiotherapy” (The Johns Hopkins University, priority 2018, dated 2023)
